Key:
[1] = test system: T-47D; assay: cells; conditions: Homo sapiens, T47D, 48 h
[2] = test system: SNB-75; conditions: SNB-75 (CNS Cancer), 48 h, SRB
[3] = test system: NCI-H460; assay: cells; conditions: Homo sapiens, NCI-H460, 48 h
[4] = test system: LOX IMVI; assay: cells; conditions: Homo sapiens, 48 h
[5] = test system: OVCAR-3; assay: NCI DTP 60 cell line screen, SRB
[6] = Lymphocyte viability, MTT assay; conditions: human
Method: (§1) Another part of our study was to determine the influence of compounds 2f, 2i, 2j, and 2h on normal human blood lymphocytes (Figure 5). […] Thus, normal blood lymphocytes are blood cells, as well as cells of leukemia cell lines, therapeutic index (TI) of compounds 2f, 2h, and 2j was calculated as GI50 (normal blood lymphocyte)/GI50 (leukemia cell line) (Table 5).
(§2) Figure 5 Human lymphocyte viability after 48 h of 2f, 2i, 2j, 2h, and Ciminalum drug exposure was estimated by MTT assay.
(§3) The assay was performed by using 3-(4,5-dimethylthiazole-2-yl)- 2,5-diphenyltetrazolium bromide (MTT). Confluent cells, cultured for 24 h with 0.1, 1, 5, 10, 20, 30, and 100 µM concentrations of studied compounds in 24-well plates were washed with PBS. MTT was dissolved in PBS, and 25 µL were added to each well. Plates were incubated for 4 h at 37 °C in 5% CO2 in an incubator. The medium with MTT was removed, and 1 mL of DMSO was added to the attached cells. Furthermore, cells were incubated for 5–10 min in RT and then 10 µl of Sorensen buffer was added to each well. The absorbance of converted dye in living cells was measured at a wavelength of 570 nm. The cell viability of breast cancer cells, gastric cancer cells, and human colon cancer cells cultured in the presence of ligands was calculated as percent of control cells.
(§4) First, 20 mL of venous blood was taken from volunteers (Ethical protocol number 2, 27 January 2019) and collected in the presence of 200 μL of undiluted fresh heparin (1/100). Sterile blood was diluted 2 times with 0.9% NaCl under the sterile conditions. Isolation of lymphocytes was performed in a density gradient of ficol-verografin using the protocol of the manufacturer (Lympoprep, NYCOMED PHARMA AS, Oslo Norway). The resulting lymphocytes were resuspended in the RPMI-1640 medium and cultured for several days (up to 10 days). To separate the lymphocytes from the monocytes, cell suspension was left for 24 h. After 24 h of culture, monocytes were attached, while lymphocytes were transferred to a fresh Falcon tube (15 mL). To stimulate the proliferation of lymphocytes, they were cultured on CD3+ antibody-coated plastic plate in the RPMI-1640 medium supplemented with 20% FBS.

[7] = test system: normal human blood lymphocytes; assay: in vitro
Method: as §1, §2, §3, §4

[8] = test system: SF-539; assay: NCI DTP 60 cell line screen, SRB
[9] = test system: MCF-7; assay: NCI DTP 60 cell line screen, SRB
[10] = test system: MDA-MB-231/ATCC; assay: NCI DTP 60 cell line screen, SRB
[11] = test system: EKVX; conditions: EKVX (Non-Small Cell Lung Cancer), 48 h, SRB
[12] = test system: HCT-116; conditions: HCT-116 (Colon Cancer), 48 h, SRB
[13] = test system: SW-620; assay: cells; conditions: Homo sapiens, SW-620, 48 h
[14] = test system: SK-MEL-28; assay: cells; conditions: Homo sapiens, SK-MEL-28, 48 h
[15] = test system: M14; assay: NCI DTP 60 cell line screen, SRB
[16] = test system: ACHN; assay: NCI DTP 60 cell line screen, SRB; conditions: 48 h
[17] = test system: SNB-75; assay: cells; conditions: Homo sapiens, SNB-75, 48 h
[18] = test system: SK-OV-3; assay: NCI DTP 60 cell line screen, SRB
[19] = test system: HL-60(TB); assay: cells; conditions: Homo sapiens, HL-60, 48 h
[20] = test system: NCI-H23; conditions: NCI-H23 (Non-Small Cell Lung Cancer), 48 h, SRB
[21] = test system: RPMI-8226
[22] = test system: U251; conditions: U251 (CNS Cancer), 48 h, SRB

In the case of `O=C(O)CCN1C(=O)/C(=C/C(Cl)=C/c2ccc([N+](=O)[O-])cc2)SC1=S` [Compound 2h, 3-{5-[(Z,2Z)-2-Chloro-3-(4-nitrophenyl)-2-propenylidene]-4-oxo-2-thioxothiazolidin-3-yl}propanoic acid], the GI50 [1] is reported as 0.363 µM, the CC50 ([1]; read-out: LC50) is reported as > 100 µM and the TGI [2] is reported as 46.0 µM. The GI50 [3] was 0.804 µM, the CC50 ([3]; read-out: LC50) was > 100 µM and the GI50 [4] was 0.161 µM. The CC50 ([4]; read-out: LC50) was > 100 µM, the GI50 ([5]; Homo sapiens, OVCAR-3, 48 h) was 0.135 µM and the CC50 ([5]; Homo sapiens, OVCAR-3, 48 h, read-out: LC50) was 66.6 µM. For the same compound, the TGI ([5]; OVCAR-3 (Ovarian Cancer), 48 h, SRB) was 6.05 µM, the GI50 at 48 h [6] was 54.5 µM and the “toxicity toward normal human blood lymphocytes” value [7] was “low toxicity”. The GI50 ([8]; Homo sapiens, SF-539, 48 h) was < 0.01 µM, the CC50 ([8]; Homo sapiens, SF-539, 48 h, read-out: LC50) was 25.8 µM and the TGI ([8]; SF-539 (CNS Cancer), 48 h, SRB) was 0.267 µM. For the same compound, the GI50 ([9]; Homo sapiens, MCF7, 48 h) was 0.239 µM, the CC50 ([9]; Homo sapiens, MCF7, 48 h, read-out: LC50) was > 100 µM and the TGI ([9]; MCF-7 (Breast Cancer), 48 h, SRB) was 14.4 µM. For the same compound, the GI50 ([10]; Homo sapiens, MDA-MB-231, 48 h) was 1.08 µM, the CC50 ([10]; Homo sapiens, MDA-MB-231, 48 h, read-out: LC50) was 25.9 µM and the TGI ([10]; MDA-MB-231/ATCC (Breast Cancer), 48 h, SRB) was 4.86 µM. For the same compound, the TGI [11] was 4.01 µM, the TGI [12] was 1.19 µM and the GI50 [13] was < 0.01 µM. For the same compound, the CC50 ([13]; read-out: LC50) was > 100 µM, the GI50 [14] was 3.59 µM and the CC50 ([14]; read-out: LC50) was 89.5 µM. For the same compound, the GI50 ([15]; Homo sapiens, M14, 48 h) was 1.66 µM, the CC50 ([15]; Homo sapiens, M14, 48 h, read-out: LC50) was 7.74 µM and the TGI ([15]; M14 (Melanoma), 48 h, SRB) was 3.58 µM. The TGI ([16]; ACHN (Renal Cancer), SRB) was 2.42 µM, the GI50 ([16]; Homo sapiens, ACHN) was 1.02 µM and the CC50 ([16]; Homo sapiens, ACHN, read-out: LC50) was 5.76 µM. For the same compound, the GI50 [17] was 12.5 µM, the CC50 ([17]; read-out: LC50) was > 100 µM and the GI50 ([18]; Homo sapiens, SK-OV-3, 48 h) was 6.83 µM. The CC50 ([18]; Homo sapiens, SK-OV-3, 48 h, read-out: LC50) was 77.6 µM, the TGI ([18]; SK-OV-3 (Ovarian Cancer), 48 h, SRB) was 27.4 µM and the GI50 [19] was 0.347 µM. The CC50 ([19]; read-out: LC50) was > 100 µM, the TGI [20] was 3.22 µM and the “TI (Therapeutic Index)” value ([21]; GI50 (normal blood lymphocyte)/GI50 (RPMI-8226)) was 395.22. It also gave a TGI ([21]; RPMI-8226 (Leukemia), 48 h, SRB) of 1.30 µM and a TGI [22] of 2.00 µM.

From PMC8161026, “Synthesis and Anticancer Activity Evaluation of 5-[2-Chloro-3-(4-nitrophenyl)-2-propenylidene]-4-thiazolidinones” (Molecules, 2021)
